Tests used:
[1] = molecular target: T1, RORγt ligand-binding domain (RORγt-LBD) (Homo sapiens, UniProt P51449); assay: Time-resolved FRET (TR-FRET) RORγt coactivator assay; format: biochemical; settings: GST-RORγ-LBD, biotinylated RIP140 peptide, coactivator displacement
T1 construct: 20 nM recombinantly expressed RORγ-LBD fused to GST
T1 sequence (P51449 269-508 limits assumed): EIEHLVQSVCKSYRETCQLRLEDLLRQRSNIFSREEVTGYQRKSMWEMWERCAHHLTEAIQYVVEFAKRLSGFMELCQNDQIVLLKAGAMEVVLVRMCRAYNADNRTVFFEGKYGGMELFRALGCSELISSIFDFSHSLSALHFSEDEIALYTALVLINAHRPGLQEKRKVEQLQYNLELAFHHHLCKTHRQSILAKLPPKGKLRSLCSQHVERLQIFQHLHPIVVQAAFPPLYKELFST

human RORγt [2] = molecular target: T2, human RORγt (Homo sapiens, UniProt P51449); assay: RORE luciferase/RORγt transactivation assay; format: cell-based; design: expressed in transfected cells; settings: COS-7 cells transfected with IL-17 promoter luciferase reporter and RORγt plasmid, 20 h
T2 sequence (P51449 1-497 isoform P51449-2): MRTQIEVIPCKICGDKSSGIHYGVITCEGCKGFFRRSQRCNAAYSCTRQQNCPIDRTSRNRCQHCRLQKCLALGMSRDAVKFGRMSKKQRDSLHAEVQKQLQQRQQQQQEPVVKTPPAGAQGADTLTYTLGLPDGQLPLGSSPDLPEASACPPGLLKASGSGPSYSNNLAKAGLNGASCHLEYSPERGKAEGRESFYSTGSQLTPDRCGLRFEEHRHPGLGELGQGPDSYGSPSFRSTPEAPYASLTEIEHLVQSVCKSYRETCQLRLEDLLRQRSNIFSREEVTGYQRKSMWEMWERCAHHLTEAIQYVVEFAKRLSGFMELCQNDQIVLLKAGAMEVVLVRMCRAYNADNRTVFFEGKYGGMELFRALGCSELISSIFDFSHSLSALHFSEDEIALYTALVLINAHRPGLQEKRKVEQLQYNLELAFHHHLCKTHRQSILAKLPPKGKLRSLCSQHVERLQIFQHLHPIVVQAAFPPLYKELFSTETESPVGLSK
Description: It is well known that RORγ binds to a conserved non-coding sequence (CNS) enhancer element in the IL-17 promoter. Accordingly, we have used in this assay a luciferase reporter gene construct that contains the human IL-17 promoter fragment with RORγ-specific CNS enhancer element and a RORγt overexpressing plasmid, to indirectly assess the effect of compounds on RORγ activity. Inhibition of RORγ activity by test compounds will result in a decrease in luciferase activity in COS-7 cells transfected with the reporter construct.
Monkey Kidney COS-7 cell line are maintained in a standard culture medium Dulbecco's modified Eagle's minimal (DMEM) medium supplemented with 10% fetal calf serum, 1% sodium pyruvate, 1% essential amino acids and 1% antibiotics at 37° C. in a humidified atmosphere of 5% CO2 and 95% air. Culture medium was changed every 2 days.
The 4.3 Kb human IL-17 promoter containing the RORγ-specific CNS enhancer element was PCR amplified from human genomic DNA and cloned into a pGL3-TKLuc2Cp reporter plasmid. To overexpress RORγt, the full-length cDNA of human RORγt (identical to published sequence NM 001001523) was cloned without any restriction into pcdna3.1DV5-His-topo to generate the RORγt overexpression plasmid “RORγt_FL_h_pcDNA3.1DV5-His-TOPO_1”.
The luciferase reporter plasmid and the RORγt overexpression plasmid were transfected into COS-7 cell line using 4 μLJetPEITM/μg of DNA. Briefly, 150 ng of DNA (ration ½ between RORE-Tk Luc2Cp and cDNA RORγt or the empty vector for the negative control) was served to transfect adherent COS-7 cells in a […] culture flask, in complete medium (see cos-7 cell line culture). Cells were incubated for 24 hours in a humidified atmosphere of 5% CO2 and 95% air
Cells were then detached (using trypsin) and washed by centrifugation at 300 g for 10 minutes. Cell pellet was resuspended in serum free/phenol red free DMEM and seeded in 384 well plates at a density of 10000 cells/well and then incubated for 4 h at 37° C.
Compounds were dissolved in 100% DMSO to obtain 10 mM stock solutions. For each compound, test concentrations were diluted in serum free/phenol red free DMEM using the Genesis Freedom 200™ (TECAN) and added to the cells to obtain a 0.3% DMSO final concentration (in a final volume of 40 μL per well). T091317 was used as reference compound. Cells were incubated in presence of compounds for an additional 20 h at 37° C. in a humidified atmosphere of 5% CO2 and 95% air
The luciferase activity was then measured with 40 μL/well steady-Glo Luciferase assay system (Promega, Madison, Wis.) and after incubation at room temperature for 30 minutes. The luminescence was estimated using the Ultra384 reader (TECAN). Data were collected and analyzed using GraphPad Prism software (GraphPad Software V5.02, San Diego Calif. USA). IC50 in μM and Emax in % were reported for each compound.

human RORγt [3] = molecular target: T2, human RORγt; assay: IL-17 secretion from EL4 murine lymphoma overexpressing human RORγt; format: cell-based; design: expressed in transfected cells; host or cells: EL-4 murine lymphoma; settings: IL-17 secretion inhibition, PMA and ionomycin stimulation, 24 h
How it was run: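 EL4 murine lymphoma cells electroporated with hRORγt plasmid, seeded 150000 cells/well, pretreated with compound, then stimulated with PMA (10 ng/mL) and ionomycin (1 μM final) with compound for a further 24 h at 37° C. IL-17 in supernatant measured by HTRF or ELISA.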

| Structure (SMILES) | IC50 [1] [nM] | IC50 (human RORγt [2]) [nM] | IC50 (human RORγt [3]) [nM] |
| --- | --- | --- | --- |
| Cc1ccc(C(NC(=O)Cc2ccc3[nH]cc(CCC(=O)O)c3c2)c2ccccc2)c(F)c1 (centres unmarked) [Cpd. 17, 3-[5-({[(2-fluoro-4-methylphenyl)(phenyl)methyl]carbamoyl}methyl)-1H-indol-3-yl]propanoic acid] | 1000 to 10000 | > 10000 |  |
| Cc1ccc(F)c(C(NC(=O)Cc2ccc3[nH]cc(CCC(=O)O)c3c2)c2ccccc2)c1 (centres unmarked) [Cpd. 19, 3-[5-({[(2-fluoro-5-methylphenyl)(phenyl)methyl]carbamoyl}methyl)-1H-indol-3-yl]propanoic acid] | 1000 to 10000 | > 10000 |  |
| O=C(O)Cc1c[nH]c2ccc(CC(=O)NC(c3ccccc3)c3ccccc3N3CCCCC3)cc12 (centres unmarked) [Cpd. 39, 2-{5-[({phenyl[2-(piperidin-1-yl)phenyl]methyl}carbamoyl)methyl]-1H-indol-3-yl}acetic acid] | 1000 to 10000 | 1000 to 10000 |  |
| Cc1ccc(C(NC(=O)Cc2ccc3[nH]cc(CCC(=O)O)c3c2)c2cccnc2)c(C)c1 (centres unmarked) [compound 27, 3-[5-({[(2,4-dimethylphenyl)(pyridin-3-yl)methyl]carbamoyl}methyl)-1H-indol-3-yl]propanoic acid] | 1000 to 10000 | > 10000 |  |
| CC(C)CC(NC(=O)Cc1ccc2[nH]cc(CCC(=O)O)c2c1)c1ccccc1N1CCCCCC1 (centres unmarked) [compound 198, 3-{5-[({1-[2-(azepan-1-yl)phenyl]-3-methylbutyl}carbamoyl)methyl]-1H-indol-3-yl}propanoic acid] | < 1000 |  | 1000 to 10000 |
| Cc1ccc(C(NC(=O)Cc2ccc3[nH]cc(CCC(=O)O)c3c2)c2ccccc2)c(N2CC=CC2)c1 (centres unmarked) [compound 200, 3-{5-[({[2-(2,5-dihydro-1H-pyrrol-1-yl)-4-methylphenyl](phenyl)methyl}carbamoyl)methyl]-1H-indol-3-yl}propanoic acid] | < 1000 |  | 1000 to 10000 |
| Cc1cccc(C(NC(=O)Cc2ccc3[nH]cc(CCC(=O)O)c3c2)c2ccccc2)c1N1CCCCC1 (centres unmarked) [compound 202, 3-{5-[({[3-methyl-2-(piperidin-1-yl)phenyl](phenyl)methyl}carbamoyl)methyl]-1H-indol-3-yl}propanoic acid] | < 1000 |  | 1000 to 10000 |
| Cc1ccc(C(C(=O)NCc2ccc3[nH]cc(CCC(=O)O)c3c2)c2ccccc2)c(N2CCCCC2)c1 (centres unmarked) [compound 209, 3-[5-({2-[4-methyl-2-(piperidin-1-yl)phenyl]-2-phenylacetamido}methyl)-1H-indol-3-yl]propanoic acid] | < 1000 |  | 1000 to 10000 |
| O=C(O)CCCCc1c[nH]c2ccc(CC(=O)NC(c3ccccc3)c3ccccc3N3CCCCC3)cc12 (centres unmarked) [compound 217, 5-{5-[({phenyl[2-(piperidin-1-yl)phenyl]methyl}carbamoyl)methyl]-1H-indol-3-yl}pentanoic acid] | < 1000 |  | 1000 to 10000 |
| CC(C)(C)OC(=O)CCc1c[nH]c2ccc(CC(=O)NC(c3ccccc3)c3ccc(O)cc3N3CCCCC3)cc12 (centres unmarked) [compound 264, tert-butyl 3-{5-[({[4-hydroxy-2-(piperidin-1-yl)phenyl](phenyl)methyl}carbamoyl)methyl]-1H-indol-3-yl}propanoate] | 1000 to 10000 |  | 1000 to 10000 |
| Cc1ccc(C(NC(=O)Cc2ccc3[nH]cc(CCC(=O)O)c3c2)c2ccc(C)o2)c(N2CCCCC2)c1 (centres unmarked) [compound 268, 3-{5-[({[4-methyl-2-(piperidin-1-yl)phenyl](5-methylfuran-2-yl)methyl}carbamoyl)methyl]-1H-indol-3-yl}propanoic acid] | < 1000 | < 1000 |  |

The next lines start with the values.

| IC50 [1] [nM] | IC50 (human RORγt [2]) [nM] | IC50 (human RORγt [3]) [nM] | Structure (SMILES) |
| --- | --- | --- | --- |
| < 1000 | 1000 to 10000 |  | Cc1ccc(C(NC(=O)Cc2ccc3[nH]cc(CCC(=O)O)c3c2)c2ccccc2)c(Cl)c1 (centres unmarked) [Cpd. 7, 3-[5-({[(2-chloro-4-methylphenyl)(phenyl)methyl]carbamoyl}methyl)-1H-indol-3-yl]propanoic acid] |
| < 1000 | 1000 to 10000 |  | Cc1ccc(C(NC(=O)Cc2ccc3[nH]cc(CCC(=O)O)c3c2)c2ccccc2)c(Br)c1 (centres unmarked) [Cpd. 9, 3-[5-({[(2-bromo-4-methylphenyl)(phenyl)methyl]carbamoyl}methyl)-1H-indol-3-yl]propanoic acid] |
| < 1000 | 1000 to 10000 | 10000 to 30000 | Cc1ccc(C(NC(=O)Cc2ccc3[nH]cc(CCC(=O)O)c3c2)c2ccccc2)c(N2CCCC2)n1 (centres unmarked) [Cpd. 15, 3-{5-[({[6-methyl-2-(pyrrolidin-1-yl)pyridin-3-yl](phenyl)methyl}carbamoyl)methyl]-1H-indol-3-yl}propanoic acid] |
| < 1000 | > 10000 |  | Cc1ccc(C(NC(=O)Cc2ccc3[nH]cc(CCC(=O)O)c3c2)c2ccccn2)c(C)c1 (centres unmarked) [Cpd. 21, 3-[5-({[(2,4-dimethylphenyl)(pyridin-2-yl)methyl]carbamoyl}methyl)-1H-indol-3-yl]propanoic acid] |
| < 1000 | > 10000 |  | Cc1ccc(C(NC(=O)Cc2ccc3[nH]cc(CCC(=O)O)c3c2)c2ccccc2)c2ncccc12 (centres unmarked) [compound 31, 3-[5-({[(5-methylquinolin-8-yl)(phenyl)methyl]carbamoyl}methyl)-1H-indol-3-yl]propanoic acid] |
| < 1000 | 1000 to 10000 |  | Cc1cc(Cl)ccc1C(NC(=O)Cc1ccc2[nH]cc(CCC(=O)O)c2c1)c1ccccc1 (centres unmarked) [compound 33, 3-[5-({[(4-chloro-2-methylphenyl)(phenyl)methyl]carbamoyl}methyl)-1H-indol-3-yl]propanoic acid] |
| < 1000 | < 1000 | 1000 to 10000 | O=C(O)CCc1c[nH]c2ccc(CC(=O)NC(c3ccccc3)c3ccccc3N3CCCCCC3)cc12 (centres unmarked) [compound 35, 3-{5-[({[2-(azepan-1-yl)phenyl](phenyl)methyl}carbamoyl)methyl]-1H-indol-3-yl}propanoic acid] |
| < 1000 | 1000 to 10000 | 10000 to 30000 | Cc1ccc(C(NC(=O)Cc2ccc3[nH]cc(CCC(=O)O)c3c2)c2ccccc2)c2ccccc12 (centres unmarked) [compound 37, 3-[5-({[(4-methylnaphthalen-1-yl)(phenyl)methyl]carbamoyl}methyl)-1H-indol-3-yl]propanoic acid] |

— patent publication US9902725B2, “Heterocyclic derivatives as RORgamma modulators” (GENFIT, priority 2014, dated 2018)
